Measurements as given in patent US11174253B2, “Compound and pharmaceutical composition containing the same” (ALPHALA CO., LTD., priority 2017, dated 2021).

Columns and labels:
Format in all cases: cell-based
[1] = system: NCI-H460 human lung cancer cell line; experiment: MTS cell viability assay (NCI-60 methodology), GI50/LC50, NCI-H460; settings: 48 h, NCI-H460 cells, 2 days incubation with compound
Experimental: (§1) The number of treated cells was determined by GE InCell 2200 system, and treated cells were stained with Hoechst 33342 which can reveal the remained nucleus in culture plate. The proportion of survival cells then were calculated with the ratio of treated/non-treated cells. The growth inhibition/cytotoxic effect of selected compounds were evaluated by the following protocol of NCI-60 screening platform. The human tumor cell lines are plating on a 96 well plate in a fixed density 24 hr prior compound treatment. Compounds with multiple concentrations are then added into each well for further 48 hr incubation. Cell viability is assessed by MTS method and the potency of compound is represented by GI50 and LC50 calculated by MTS result.
(§2) The cell viability measurement is based on the NCI-60 screening methodology (Nat. Rev. Cancer 6, 813-823, 2006). Briefly, cells are inoculated into 96-well plates at the optimal plating density. After 24 h, one of the two plates for each cell line is processed to determine a time zero cell viability (Tz) by MTS assay (Promega). Compounds are added over a 2-fold serial dilution to provide a total five drug concentrations plus DMSO control. Plates are incubated for a further 2 days, then measured cell viability by MTS assay [control growth (C) and test growth in the presence of drug at the five concentration levels (Ti)]. Growth inhibition of 50% (GI50) is calculated from [(Ti−Tz)/(C−Tz)]×100=50, which is the drug concentration resulting in a 50% reduction of control cells during the drug incubation. The LC50 is calculated from [(Ti−Tz)/Tz]×100=−50, which is the drug concentration resulting in a 50% reduction at the end of the drug treatment as compared to that at the beginning.
(§3) Herein, Hep3B refers to hepatocellular carcinoma cell line, SW480 refers to colon adenocarcinoma cell line, and NCI-H460 refers to human lung cancer cell line.

[2] = system: SW480 colon adenocarcinoma cell line; experiment: MTS cell viability assay (NCI-60 methodology), GI50/LC50, SW480; settings: Homo sapiens, 48 h, SW480 cells, 2 days incubation with compound
Experimental: as §1, §2, §3

[3] = system: Hep3B hepatocellular carcinoma cell line; experiment: MTS cell viability assay (NCI-60 methodology), GI50/LC50, Hep3B; settings: Homo sapiens, 48 h, Hep3B cells, 2 days incubation with compound
Experimental: as §1, §2, §3

[4] = system: hepatocellular carcinoma cell line Hep3B; experiment: Growth inhibition of Hep3B cells, 48 hr treatment, Hoechst 33342 nucleus count (GE InCell 2200); settings: Homo sapiens
Procedure, shortened: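 Compound exposure lasted 48 hr at 37° C, 5% CO2. Surviving nuclei were counted after Hoechst 33342 staining, and survival was expressed as the treated/non-treated cell number ratio, including the ratio at 10 μM compound.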

[5] = Table 6, ratio of number of tumor cells treated with 10 μM compound to non-treated cells
[6] = Table 5, ratio of number of tumor cells treated with 10 μM compound to non-treated cells

SMILES: CC(C)(C)c1ccc(-c2nc(NC(=O)c3ccc([N+](=O)[O-])s3)sc2-c2ccc(F)cc2)cc1 [Compound 6-24, N-(4-(4-(tert-butyl)phenyl)-5-(4-fluorophenyl)thiazol-2-yl)-5-nitrothiophene-2-carboxamide]
- GI50 [1]: 1560 nM
- LC50 (concentration giving 50% net cell loss versus time zero, NCI-60 definition) [1]: 4220 nM
- GI50 [2]: 1370 nM
- LC50 (NCI-60 lethal concentration, 50% net cell loss vs time zero) [2]: 3.57 µM
- GI50 [3]: 990 nM
- LC50 [3]: 1930 nM
- viability at 10 µM [4, 5]: 30%

SMILES: O=C(Nc1nc(-c2ccc(Br)cc2)c(Oc2ccccc2C(F)(F)F)s1)c1ccc([N+](=O)[O-])s1 [Compound 5-19, N-(4-(4-bromophenyl)-5-(2-(trifluoromethyl)phenoxy)thiazol-2-yl)-5-nitrothiophene-2-carboxamide]
- GI50 [1]: 2880 nM
- GI50 [2]: 1510 nM
- LC50 (NCI-60 lethal concentration, 50% net cell loss vs time zero) [2]: 3.94 µM
- GI50 [3]: 1790 nM
- LC50 [3]: 3910 nM
- viability at 10 µM [4, 6]: 62%

SMILES: CCCOc1ccc(-c2nc(NC(=O)c3ccc([N+](=O)[O-])s3)sc2Oc2ccc(C(F)(F)F)cc2)cc1 [Compound 5-26, 5-nitro-N-(4-(4-propoxyphenyl)-5-(4-(trifluoromethyl)phenoxy)thiazol-2-yl)thiophene-2-carboxamide]
- GI50 [1]: 1150 nM
- LC50 (concentration giving 50% net cell loss versus time zero, NCI-60 definition) [1]: 3200 nM
- GI50 [2]: 1050 nM
- LC50 (NCI-60 lethal concentration, 50% net cell loss vs time zero) [2]: 3.44 µM
- GI50 [3]: 830 nM
- LC50 [3]: 1180 nM
- viability at 10 µM [4, 6]: 24%

SMILES: CC(C)(C)c1ccc(-c2nc(NC(=O)c3ccc([N+](=O)[O-])s3)sc2Oc2cccc(F)c2)cc1 [Compound 5-22, N-(4-(4-(tert-butyl)phenyl)-5-(3-fluorophenoxy)thiazol-2-yl)-5-nitrothiophene-2-carboxamide]
- GI50 [1]: 2090 nM
- LC50 (concentration giving 50% net cell loss versus time zero, NCI-60 definition) [1]: 4530 nM
- GI50 [2]: 2500 nM
- LC50 (NCI-60 lethal concentration, 50% net cell loss vs time zero) [2]: 4.27 µM
- GI50 [3]: 1430 nM
- LC50 [3]: 4030 nM
- viability at 10 µM [4, 6]: 30%

SMILES: CCOc1ccc(-c2nnc(NC(=O)Cc3ccc4nc(N)sc4c3)s2)cc1 [Compound 1-2, 2-(2-aminobenzo[d]thiazol-6-yl)-N-(5-(4-ethoxyphenyl)-1,3,4-thiadiazol-2-yl)acetamide]
- GI50 [1]: 860 nM
- LC50 (concentration giving 50% net cell loss versus time zero, NCI-60 definition) [1]: 1240 nM
- GI50 [2]: 3550 nM
- LC50 (NCI-60 lethal concentration, 50% net cell loss vs time zero) [2]: 8.93 µM
- GI50 [3]: 160 nM
- LC50 [3]: 480 nM
- viability at 10 µM ([4]; Table 1, ratio of number of tumor cells treated with 10 μM compound to non-treated cells): 61%

SMILES: CC(C)(C)c1ccc(-c2nc(NC(=O)c3ccc([N+](=O)[O-])s3)sc2-c2ccccc2)cc1 [Compound 6-21, N-(4-(4-(tert-butyl)phenyl)-5-phenylthiazol-2-yl)-5-nitrothiophene-2-carboxamide]
- GI50 [1]: 810 nM
- LC50 (concentration giving 50% net cell loss versus time zero, NCI-60 definition) [1]: 1470 nM
- GI50 [2]: 490 nM
- LC50 (NCI-60 lethal concentration, 50% net cell loss vs time zero) [2]: 1.47 µM
- GI50 [3]: 670 nM
- LC50 [3]: 1350 nM
- viability at 10 µM [4, 5]: 29%

SMILES: O=C(Nc1nc(-c2ccc(Br)cc2)c(Oc2cccc(C(F)(F)F)c2)s1)c1ccc([N+](=O)[O-])s1 [Compound 5-11, N-(4-(4-bromophenyl)-5-(3-(trifluoromethyl)phenoxy)thiazol-2-yl)-5-nitrothiophene-2-carboxamide]
- GI50 [1]: 630 nM
- LC50 (concentration giving 50% net cell loss versus time zero, NCI-60 definition) [1]: 3980 nM
- GI50 [2]: 7040 nM
- GI50 [3]: 6540 nM
- viability at 10 µM [4, 6]: 21%

SMILES: O=C(Nc1nc(-c2ccc(OC(F)(F)F)cc2)c(Oc2ccccc2F)s1)c1ccc([N+](=O)[O-])s1 [Compound 5-85, N-(5-(2-fluorophenoxy)-4-(4-(trifluoromethoxy)phenyl)thiazol-2-yl)-5-nitrothiophene-2-carboxamide]
- GI50 [1]: 750 nM
- LC50 (concentration giving 50% net cell loss versus time zero, NCI-60 definition) [1]: 1580 nM
- GI50 [2]: 1660 nM
- LC50 (NCI-60 lethal concentration, 50% net cell loss vs time zero) [2]: 5.73 µM
- GI50 [3]: 870 nM
- LC50 [3]: 2540 nM
- viability at 10 µM [4, 6]: 34%

SMILES: CCCCCCOc1ccc(-c2nc(NC(=O)c3ccc([N+](=O)[O-])s3)sc2Oc2ccccc2)cc1 [Compound 5-67, N-(4-(4-(hexyloxy)phenyl)-5-phenoxythiazol-2-yl)-5-nitrothiophene-2-carboxamide]
- GI50 [1]: 790 nM
- LC50 (concentration giving 50% net cell loss versus time zero, NCI-60 definition) [1]: 1350 nM
- GI50 [2]: 1030 nM
- LC50 (NCI-60 lethal concentration, 50% net cell loss vs time zero) [2]: 1.91 µM
- GI50 [3]: 620 nM
- LC50 [3]: 690 nM
- viability at 10 µM [4, 6]: 46%
